The target of the assay is T1, His-TEV-DYRK1A Kinase domain (aa127-485) (Homo sapiens, UniProt Q13627).
T1 construct: His-TEV-DYRK1A Kinase domain (aa127-485); His (N); TEV cleavage site (N)
The experiment in a line: Kinase ADP assay (ADP Hunter Plus). The format is biochemical.

For 39 compounds, IC50 results are on record in US20180273538A1, “PYRROLO[2,3-d]PYRIMIDINE DERIVATIVES, A PROCESS FOR THEIR PREPARATION AND PHARMACEUTICAL COMPOSITIONS CONTAINING THEM” (LES LABORATOIRES SERVIER, priority 2015, published 2018).

The term IC50 denotes the concentration that gives 50% inhibition.

For the compound `Cc1cc(-c2c[nH]c3nc(C)nc(OC[C@@H]4CCCNC4)c23)ccn1` [Example 6, 2-methyl-5-(2-methylpyridin-4-yl)-4-[(3R)-piperidin-3-ylmethoxy]-7H-pyrrolo[2,3-d]pyrimidine], the IC50 was determined as 0.07 µM. In the case of `Cc1nc(OCC2CC2)c2c(-c3ccncc3)c[nH]c2n1` [Example 7, 4-(cyclopropylmethoxy)-2-methyl-5-(pyridin-4-yl)-7H-pyrrolo[2,3-d]pyrimidine], the IC50 was 0.039 µM.

Turning to `Cc1nc(OCCC2CC2)c2c(-c3ccncc3)c[nH]c2n1` [Example 8, 4-(2-cyclopropylethoxy)-2-methyl-5-(pyridin-4-yl)-7H-pyrrolo[2,3-d]pyrimidine], the IC50 came to 0.038 µM. To `Cc1nc(OCCc2c[nH]c3ccccc23)c2c(-c3ccncc3)c[nH]c2n1` [Example 9, 4-[2-(1H-indol-3-yl)ethoxy]-2-methyl-5-(pyridin-4-yl)-7H-pyrrolo[2,3-d]pyrimidine] belongs 0.06 µM; to `Cc1nc(OCCc2ccccc2)c2c(-c3ccncc3)c[nH]c2n1` [Example 10, 2-methyl-4-(2-phenylethoxy)-5-(pyridin-4-yl)-7H-pyrrolo[2,3-d]pyrimidine], 0.085 µM; to `Cc1nc(OCCN2CCCC2)c2c(-c3ccncc3)c[nH]c2n1` [Example 12, 2-methyl-5-(pyridin-4-yl)-4-[2-(pyrrolidin-1-yl)ethoxy]-7H-pyrrolo[2,3-d]pyrimidine], 2.04 µM. To `Cc1nc(OCCN2CCCCC2)c2c(-c3ccncc3)c[nH]c2n1` [Example 13, 2-methyl-4-[2-(piperidin-1-yl)ethoxy]-5-(pyridin-4-yl)-7H-pyrrolo[2,3-d]pyrimidine] belongs 1.37 µM; to `Cc1nc(OCC2CCCO2)c2c(-c3ccncc3)c[nH]c2n1` (stereo not drawn) [Example 14, 2-methyl-5-(pyridin-4-yl)-4-(tetrahydrofuran-2-ylmethoxy)-7H-pyrrolo[2,3-d]pyrimidine], 0.043 µM; to `Cc1nc(OCc2cccs2)c2c(-c3ccnc(N)c3)c[nH]c2n1` [Example 19, 4-[2-methyl-4-(thiophen-2-ylmethoxy)-7H-pyrrolo[2,3-d]pyrimidin-5-yl]pyridin-2-amine], 0.025 µM. To `Cc1nc(OCc2cccnc2)c2c(-c3ccnc(N)c3)c[nH]c2n1` [Example 22, 4-[2-methyl-4-(pyridin-3-ylmethoxy)-7H-pyrrolo[2,3-d]pyrimidin-5-yl]pyridin-2-amine] belongs 0.018 µM. As to `Cc1nc(OCc2ccncc2)c2c(-c3ccnc(N)c3)c[nH]c2n1` [Example 23, 4-[2-methyl-4-(pyridin-4-ylmethoxy)-7H-pyrrolo[2,3-d]pyrimidin-5-yl]pyridin-2-amine], the IC50 worked out at 0.015 µM. To `Cc1nc(OCc2cc(-c3ccc(F)cc3)on2)c2c(-c3ccnc(N)c3)c[nH]c2n1` [Example 24, 4-(4-{[5-(4-fluorophenyl)-1,2-oxazal-3-yl]methoxy}-2-methyl-7H-pyrrolo[2,3-d]pyrimidin-5-yl)pyridin-2-amine] belongs 0.066 µM; to `COc1ccc(COc2nc(C)nc3[nH]cc(-c4ccnc(N)c4)c23)cc1` [Example 26, 4-{4-[(4-methoxybenzyl)oxy]-2-methyl-7H-pyrrolo[2,3-d]pyrimidin-5-yl}pyridin-2-amine], 0.029 µM; to `Cc1nc(N(C)C)c2c(-c3ccnc(N)c3)c[nH]c2n1` [Example 29, 5-(2-aminopyridin-4-yl)-N,N,2-trimethyl-7H-pyrrolo[2,3-d]pyrimidin-4-amine], 0.062 µM.

Turning to `Cc1nc(N2CCCC2)c2c(-c3ccnc(N)c3)c[nH]c2n1` [Example 30, 4-[2-methyl-4-(pyrrolidin-1-yl)-7H-pyrrolo[2,3-d]pyrimidin-5-yl]pyridin-2-amine], the IC50 came to 0.827 µM. In the case of `Cc1nc(N2CCC(N(C)C)C2)c2c(-c3ccnc(N)c3)c[nH]c2n1` (stereo not drawn) [Example 31, 4-{4-[3-(dimethylamino)pyrrolidin-1-yl]-2-methyl-7H-pyrrolo[2,3-d]pyrimidin-5-yl}pyridin-2-amine] it was 1.07 µM; in that of `Cc1nc(N2CCN(C)CC2)c2c(-c3ccnc(N)c3)c[nH]c2n1` [Example 33, 4-[2-methyl-4-(4-methypiperazin-1-yl)-7H-pyrrolo[2,3-d]pyrimidin-5-yl]pyridin-2-amine], 0.165 µM. In the case of `Cc1nc(NCc2cccnc2)c2c(-c3ccnc(N)c3)c[nH]c2n1` [Example 34, 5-(2-aminopyridin-4-yl)-2-methyl-N-(pyridin-3-ylmethyl)-7H-pyrrolo[2,3-d]pyrimidin-4-amine] it was 0.278 µM; in that of `Cc1nc(NCc2ccnn2C)c2c(-c3ccnc(N)c3)c[nH]c2n1` [Example 38, 5-(2-aminopyridin-4-yl)-2-methyl-N-[(1-methyl-1H-pyrazol-5-yl)methyl]-7H-pyrrolo[2,3-d]pyrimidin-4-amine], 0.149 µM.

In the case of `Cc1nc(NCc2nccs2)c2c(-c3ccnc(N)c3)c[nH]c2n1` [Example 39, 5-(2-aminopyridin-4-yl)-2-methyl-N-(1,3-thiazol-2-ylmethyl)-7H-pyrrolo[2,3-d]pyrimidin-4-amine], the IC50 turned out to be 0.084 µM. To `Cc1nc(NCc2cncs2)c2c(-c3ccnc(N)c3)c[nH]c2n1` [Example 41, 5-(2-aminopyridin-4-yl)-2-methyl-N-(1,3-thiazol-5-ylmethyl)-7H-pyrrolo[2,3-d]pyrimidin-4-amine] belongs 0.158 µM; to `Cc1nc(NCc2ccccc2)c2c(-c3ccncc3)c[nH]c2n1` [Example 42, N-benzyl-2-methyl-5-(pyridin-4-yl)-7H-pyrrolo[2,3-d]pyrimidin-4-amine], 0.233 µM.

As to `Cc1cc(-c2c[nH]c3nc(C)nc(NCc4ccccc4)c23)ccn1` [Example 43, N-benzyl-2-methyl-5-(2-methylpyridin-4-yl)-7H-pyrrolo[2,3-d]pyrimidin-4-amine], the IC50 came to 0.278 µM. To `Cc1nc(NCc2ccsc2)c2c(-c3ccncc3)c[nH]c2n1` [Example 44, 2-methyl-5-(pyridin-4-yl)-N-(thiophen-3-ylmethyl)-7H-pyrrolo[2,3-d]pyrimidin-4-amine] belongs 0.249 µM.

Turning to `Cc1nc(NCc2cc(C)on2)c2c(-c3ccncc3)c[nH]c2n1` [Example 46, 2-methyl-N-[(5-methyl-1,2-oxazol-3-yl)methyl]-5-(pyridin-4-yl)-7H-pyrrolo[2,3-d]pyrimidin-4-amine], the IC50 turned out to be 0.369 µM.

As to `Cc1cc(-c2c[nH]c3nc(C)nc(NCc4cc(C)on4)c23)ccn1` [Example 47, 2-methyl-N-[(5-methyl-1,2-oxazol-3-yl)methyl]-5-(2-methylpyridin-4-yl)-7H-pyrrolo[2,3-d]pyrimidin-4-amine], the IC50 stood at 0.372 µM. To `Cc1nc(NC(C)c2ccccc2)c2c(-c3ccnc(N)c3)c[nH]c2n1` (stereo not drawn) [Example 49, 5-(2-aminopyridin-4-yl)-2-methyl-N-(1-phenylethyl)-7H-pyrrolo[2,3-d]pyrimidin-4-amine] belongs 0.127 µM; to `Cc1nc(NCc2cccc(F)c2)c2c(-c3ccnc(N)c3)c[nH]c2n1` [Example 50, 5-(2-aminopyridin-4-yl)-N-(3-fluorobenzyl)-2-methyl-7H-pyrrolo[2,3-d]pyrimidin-4-amine], 0.045 µM.

With `Cc1nc(N[C@@H](C)c2ccccc2)c2c(-c3ccnc(N)c3)c[nH]c2n1` [Example 67, 5-(2-aminopyridin-4-yl)-2-methyl-N-[(1S)-1-phenylethyl]-7H-pyrrolo[2,3-d]pyrimidin-4-amine], the half-inhibitory concentration (IC50) stood at 0.094 µM. To `Cc1nc(N[C@H](C)c2ccccc2)c2c(-c3ccnc(N)c3)c[nH]c2n1` [Example 68, 5-(2-aminopyridin-4-yl)-2-methyl-N-[(1R)-1-phenylethyl]-7H-pyrrolo[2,3-d]pyrimidin-4-amine] belongs 0.059 µM. To `Cc1nc(N[C@H]2CCc3ccccc32)c2c(-c3ccnc(N)c3)c[nH]c2n1` [Example 77, 5-(2-aminopyridin-4-yl)-N-[(1S)-2,3-dihydro-1H-inden-1-yl]-2-methyl-7H-pyrrolo[2,3-d]pyrimidin-4-amine] belongs 0.057 µM; to `Cc1nc(N[C@H](C)c2ccccc2F)c2c(-c3ccnc(N)c3)c[nH]c2n1` [Example 86, 5-(2-aminopyridin-4-yl)-N-[(1R)-1-(2-fluorophenyl)ethyl]-2-methyl-7H-pyrrolo[2,3-d]pyrimidin-4-amine], 0.121 µM; to `Cc1nc(NCc2ccc(-c3ccccn3)s2)c2c(-c3ccnc(N)c3)c[nH]c2n1` [Example 87, 5-(2-aminopyridin-4-yl)-2-methyl-N-{[5-(pyridin-2-yl)thiophen-2-yl]methyl}-7H-pyrrolo[2,3-d]pyrimidin-4-amine], 1.94 µM. Turning to `Cc1nc(NCc2cc(-c3ccccc3)no2)c2c(-c3ccnc(N)c3)c[nH]c2n1` [Example 88, 5-(2-aminopyridin-4-yl)-2-methyl N-[(3-phenyl-1,2-oxazol-5-yl)methyl]-7H-pyrrolo[2,3-d]pyrimidin-4-amine], the IC50 came to 2.09 µM.

With `Cc1nc(N[C@@H]2CCCc3ccccc32)c2c(-c3ccnc(N)c3)c[nH]c2n1` [Example 91, 5-(2-aminopyridin-4-yl)-2-methyl-N-[(1R)-1,2,3,4-tetrahydronaphthalen-1-yl]-7H-pyrrolo[2,3-d]pyrimidin-4-amine], the IC50 was 0.038 µM. To `Cc1nc(NCc2cc(Cl)ccc2Cl)c2c(-c3ccnc(N)c3)c[nH]c2n1` [Example 92, 5-(2-aminopyridin-4-yl)-N-(2,5-dichlorobenzyl)-2-methyl-7H-pyrrolo[2,3-d]pyrimidin-4-amine] belongs 0.087 µM; to `Cc1nc(NC2CCCCC2)c2c(-c3ccnc(N)c3)c[nH]c2n1` [Example 93, 5-(2-aminopyridin-4-yl)-N-cyclohexyl-2-methyl-7H-pyrrolo[2,3-d]pyrimidin-4-amine], 0.176 µM.

As to `Cc1nc(N2CCCC(C)C2)c2c(-c3ccnc(N)c3)c[nH]c2n1` (stereo not drawn) [Example 97, 4-[2-methyl-4-{3-methylpiperidin-1-yl)-7H-pyrrolo[2,3-d]pyrimidin-5-yl]pyridin-2-amine], the IC50 came to 0.063 µM. To `Cc1nc(NCCC(F)(F)F)c2c(-c3ccnc(N)c3)c[nH]c2n1` [Example 100, 5-(2-aminopyridin-4-yl)-2-methyl-N-(3,3,3-trifluoropropyl)-7H-pyrrolo[2,3-d]pyrimidin-4-amine] belongs 0.161 µM.
